We go through 6 molecules from patent EP0928340B1, “INVASION-INHIBITORS FOR USE IN WOUND HEALING AND CANCER” (THE REGENTS OF THE UNIVERSITY OF MICHIGAN, priority 1996, dated 2009).

Assay [1] concerns DU-145 prostate cancer cells. Briefly: SU-ECM in vitro invasion assay, human prostate cancer cells. In kind it is cell-based. The note with it: for IC100: Homo sapiens, DU-145, read-out: concentration that completely (fully) inhibits invasion. The protocol:
Adult Strongylocentrotus purpuratus sea urchins were obtained from Pacific BioMarine, and their embryos were cultured to the early pluteus stage in artificial sea water at 15°C. SU-ECM were prepared from them by treatment with nonionic detergent and strerilized by dilution in the appropriate media.
[…] When appropriate, purified bovine plasma fibronectin (Sigma), purified 120 kDa chymotryptic fragment (Gibco BRL). PHSRN or PHSCN peptides (synthesized at the Biomedical Research Core Facilities of the University of Michigan), or GRGDSP or GRGESP peptides (Gibco BRL) were added to the resuspended cells prior to placement of the cells on SU-ECM. In each well of a plate used for an invasion assay, SU-ECM were placed in 0.5 ml of the appropriate medium, and 0.5ml of the resuspended cells dropped on their exterior surfaces. Invasion assays were incubated 1 to 16 hours prior to assay. If some circumstances, invasion assays were fixed in phosphate-buffered saline (PBS) with 2% formaldehyde for 5 minutes at room temperature, then rinsed into PBS.
Invasion assays were coded and scored blindly by microscopic examination under phase contrast at 200- and 400-fold magnification. Each cell contacting an SU-ECM was scored for its position relative to the exterior or interior surfaces. A cell was judged to have invaded if it was located on an interior surface below the focal plane passing through the upper surface of the SU-ECM, but above the focal plane passing through its lower surface. The minimum viability of the cells in each assay was always ascertained at the time of assay by determining the fraction of spread, adherent cells on the bottom of each well scored.
An invasion frequency is defined as the fraction of cells in contact with basement membranes which were located in their interiors at the time of assay. Thus, an invasion frequency of 1 denotes invasion by 100% of the cells in contact with basement membranes. Invasion frequencies were determined multiple times for each cell type assayed. For each type of cell assayed the mean and standard deviation of the invasion frequencies were calculated.
The method of Example 4 is employed, with the addition of varying concentrations of the PHSCN peptide.
Thus, the procedure in Example 4 provides a method for determining the inhibitory potential of the PHSCN peptide by comparing the number of cell invasions in the presence of the PHSCN peptide, with the number of cell invasions in the absence of the PHSCN peptide.
In this example, in vitro invasion of cancer cells into substrates is inhibited with peptides that have been chemically modified with protecting groups and peptides having protecting groups as well as the modification wherein an L-amino acid has been replaced with the D-isomer. PHSCN peptide, blocked PHSCN peptide, and blocked PHSCN peptide with a D-cysteine instead of the L-isomer, were tested (Figure 11).
In this example, in vitro invasion of cancer cells into substrates is inhibited with non-peptide mimetics in comparison with chemically modified peptides (on a molar basis). The peptides of Example 14 (i.e. peptides chemically modified with protecting groups and peptides having protecting groups as well as the modification wherein an L-amino acid has been replaced with the D-isomer) were compared with the non-peptide mimetics DL-N-Acetylhomocysteinethiolactone, Thiobutyrolactone, and Mercaptopropionic acid, in order to investigate the structure activity relationship for invasion inhibition by interaction with the PHSRN-binding pocket of the α5β1 fibronectin receptor (Figure 12)

Assay [2] concerns the target α5β1 integrin fibronectin receptor (human) (UniProt P08648). Briefly: cell-based or functional assay.
Assay [3] shares this target. The experiment in a line: cell-based or functional assay. This is another data set of the same source.
The mark [4] stands for this setting: invasion inhibition, molar basis (Figure 12).

Like-named read-outs stand apart in the source and are kept apart here.

Chain of UniProt P08648 (P08648 42-1049, chain 1 of 2): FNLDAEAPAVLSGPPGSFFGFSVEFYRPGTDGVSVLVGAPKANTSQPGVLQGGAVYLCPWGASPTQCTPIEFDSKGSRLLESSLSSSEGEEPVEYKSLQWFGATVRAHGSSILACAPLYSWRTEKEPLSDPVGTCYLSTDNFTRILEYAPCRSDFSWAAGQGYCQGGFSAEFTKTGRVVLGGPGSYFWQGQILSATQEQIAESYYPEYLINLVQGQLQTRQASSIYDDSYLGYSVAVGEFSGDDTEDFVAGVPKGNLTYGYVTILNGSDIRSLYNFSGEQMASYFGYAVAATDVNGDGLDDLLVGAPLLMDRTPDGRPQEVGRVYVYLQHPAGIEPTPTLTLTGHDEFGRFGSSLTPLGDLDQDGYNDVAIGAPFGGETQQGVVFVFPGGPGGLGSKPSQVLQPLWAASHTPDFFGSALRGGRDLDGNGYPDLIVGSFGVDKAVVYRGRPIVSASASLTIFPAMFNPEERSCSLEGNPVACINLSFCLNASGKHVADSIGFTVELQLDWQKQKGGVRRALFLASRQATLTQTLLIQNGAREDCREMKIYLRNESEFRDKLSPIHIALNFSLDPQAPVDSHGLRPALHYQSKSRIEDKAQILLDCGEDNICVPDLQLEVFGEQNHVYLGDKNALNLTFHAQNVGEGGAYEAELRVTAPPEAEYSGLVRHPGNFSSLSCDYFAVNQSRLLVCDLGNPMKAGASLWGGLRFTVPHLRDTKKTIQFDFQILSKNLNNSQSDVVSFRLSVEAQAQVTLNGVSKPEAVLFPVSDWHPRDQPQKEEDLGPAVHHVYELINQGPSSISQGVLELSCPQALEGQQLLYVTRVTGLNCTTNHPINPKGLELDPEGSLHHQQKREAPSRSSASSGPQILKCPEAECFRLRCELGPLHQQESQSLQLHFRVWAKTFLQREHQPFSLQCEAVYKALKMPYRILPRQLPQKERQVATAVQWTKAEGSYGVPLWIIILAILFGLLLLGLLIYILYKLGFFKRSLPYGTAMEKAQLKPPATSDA
Chain of UniProt P08648 (P05556 21-798, chain 2 of 2, further chain): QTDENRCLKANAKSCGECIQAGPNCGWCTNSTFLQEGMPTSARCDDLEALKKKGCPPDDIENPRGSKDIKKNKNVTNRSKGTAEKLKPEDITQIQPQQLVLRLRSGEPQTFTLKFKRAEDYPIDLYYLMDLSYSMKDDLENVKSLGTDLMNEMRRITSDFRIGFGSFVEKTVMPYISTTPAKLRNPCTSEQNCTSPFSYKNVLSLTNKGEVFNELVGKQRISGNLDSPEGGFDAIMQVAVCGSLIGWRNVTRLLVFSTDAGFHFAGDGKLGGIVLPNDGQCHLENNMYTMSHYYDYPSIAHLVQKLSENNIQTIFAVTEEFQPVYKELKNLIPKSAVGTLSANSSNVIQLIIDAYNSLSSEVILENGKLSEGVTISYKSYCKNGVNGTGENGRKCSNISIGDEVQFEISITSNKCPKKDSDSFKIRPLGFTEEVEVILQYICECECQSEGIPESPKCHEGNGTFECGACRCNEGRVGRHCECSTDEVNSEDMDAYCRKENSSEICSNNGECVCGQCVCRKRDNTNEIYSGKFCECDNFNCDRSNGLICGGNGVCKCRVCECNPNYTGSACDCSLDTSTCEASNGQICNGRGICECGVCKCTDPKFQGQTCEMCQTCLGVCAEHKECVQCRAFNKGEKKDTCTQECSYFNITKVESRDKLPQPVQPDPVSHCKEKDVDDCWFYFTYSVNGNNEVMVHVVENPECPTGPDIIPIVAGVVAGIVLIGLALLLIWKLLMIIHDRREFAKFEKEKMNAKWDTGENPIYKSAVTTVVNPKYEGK

Regarding `CC(=O)NC1CCSC1=O` (racemic) [DL-N-Acetylhomocysteinethiolactone], the IC100 in assay [1] came out at 0.6 µM. Also, in assay [1] (setting [4]), the “less active than blocked PHSCN” value was “about 10 fold” and the “more active than the unblocked PHSCN peptide” value was “about 3 fold”.
Regarding `O=C(O)CCS` [Mercaptopropionic acid], the “reduction of DU145 invasion” value in assay [1] (at any of the concentrations tested, medium with 10% serum (Figure 12)) was ≤ 20%. Besides, in assay [1] (setting [4]), the “less active in invasion inhibition than thiobutyrolactone” value is recorded as “at least 100 times” and the “less active than the unblocked PHSCN peptide” value was found to be 1500 times.
Regarding `O=C1CCCS1` [Thiobutyrolactone], the IC100 in assay [1] came out at 30 µM. In assay [1] (setting [4]), the “less active than N-acetylhomocysteinethiolactone” value was found to be 50 fold, the “less active than blocked PHSCN” value is recorded as “about 500 fold” and the “less active than the unblocked PHSCN peptide” value stood at 15 times.
For Ac-PHSCN-NH2 [Ac-PHSCN-NH2], in assay [1] (medium with 10% serum (Example 14, Figure 11)), the “concentration that completely inhibits invasion” value is recorded as “approximately 1.3 ng/ml”. The “concentration that completely (fully) inhibits invasion” value in assay [1] (medium with 10% serum (Example 15, Figure 12)) is given as “approximately 0.06 µM”.
For Ac-PHSCN-NH2 peptide, the concentration giving complete inhibition of invasion of metastatic DU145 cells into SU-ECM in medium with 10% serum in assay [2] turned out to be 1.3 ng/mL; in assay [3], 0.06 µM.
On to PHSCN peptide, for which the values for the concentration giving complete inhibition of invasion of metastatic DU145 cells into SU-ECM in medium with 10% serum in assay [2] and in assay [3] were 3 ng/mL and 2 µM, respectively.
